Assay results taken from PubChem BioAssay (NCI).
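How tested: cells in 96-well plates exposed to compound for 48 hours at five concentrations. At the TGI there is no net growth.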

Key:
Assay in all cases: growth of human tumour cells (NCI), 48 h
[1] = test system: 786-0 renal
[2] = test system: A549 NSCLC
[3] = test system: DU-145 prostate
[4] = test system: HCC-2998 colon
[5] = test system: HCT-116 colon
[6] = test system: HCT-15 colon
[7] = test system: HOP-62 NSCLC
[8] = test system: MDA-N
[9] = test system: MOLT-4 leukemia
[10] = test system: OVCAR-3 ovarian
[11] = test system: RXF 393 renal
[12] = test system: SF-295 CNS
[13] = test system: SF-539 CNS
[14] = test system: SK-MEL-28 melanoma
[15] = test system: TK-10 renal
[16] = test system: UACC-257 melanoma
[17] = test system: UACC-62 melanoma
[18] = test system: NCI-H522 lung
[19] = test system: BT-549 breast

| SMILES | TGI [1] | TGI [2] | TGI [3] | TGI [4] | TGI [5] | TGI [6] | TGI [7] | TGI [8] | TGI [9] | TGI [10] | TGI [11] | TGI [12] | TGI [13] | TGI [14] | TGI [15] | TGI [16] | TGI [17] | TGI [18] | TGI [19] |
| --- | --- | --- | --- | --- | --- | --- | --- | --- | --- | --- | --- | --- | --- | --- | --- | --- | --- | --- | --- |
| CCCCOC(=O)NC(Nc1ccc(S(=O)(=O)Nc2ccc(OC)nn2)cc1)(C(F)(F)F)C(F)(F)F | > 100 µM | > 100 µM | > 100 µM | > 100 µM | > 100 µM | > 100 µM | > 100 µM | > 100 µM | > 100 µM | > 100 µM | > 100 µM | > 100 µM | > 100 µM | > 100 µM | > 100 µM | > 100 µM | > 100 µM |  |  |
| CC(Oc1ccc(OCC2CCCCC2)cc1)C(N)=O (centres undefined) | > 100 µM | > 100 µM |  |  | > 100 µM | > 100 µM |  |  | > 100 µM | > 100 µM |  | > 100 µM | > 100 µM | > 100 µM | > 100 µM | > 100 µM | > 100 µM | > 100 µM |  |
| CCCc1c[nH]c(-c2ccc(-c3cc(CCC)c(C=O)[nH]3)s2)c1 | 27.7 µM | 17.6 µM |  |  | 31.9 µM | 29.6 µM |  |  | 86.2 µM | 30.8 µM | 36.1 µM | 33.1 µM | 32.8 µM | 26.5 µM | 28.7 µM | 31.2 µM | 31.2 µM | 31.1 µM |  |
| ClCCN1CCOC1=Nc1ccc2c(c1)CCCC2 | 35.3 µM | 57.5 µM | 48.4 µM | 30.1 µM | 26.8 µM | 48.6 µM | 22 µM | 28.3 µM | 39.9 µM | 29.3 µM | 22.6 µM | 31.9 µM | 17.9 µM | 39.1 µM |  | 13.2 µM | 27.9 µM | 54.9 µM |  |
| NCCCCN(CCCN)C(=O)c1ccccc1 | > 100 µM | > 100 µM | > 100 µM | > 100 µM | > 100 µM | > 100 µM | > 100 µM |  | > 100 µM | > 100 µM | > 100 µM | > 100 µM | > 100 µM | > 100 µM | > 100 µM | > 100 µM | > 100 µM | > 100 µM | > 100 µM |
| O=c1ssc(Cl)c1Nc1c(Cl)ssc1=O | 38.2 µM | 49.8 µM | 32.3 µM | 41.3 µM | 33.9 µM | 39.6 µM | 42.4 µM |  | 7.29 µM | 39.4 µM | 28.3 µM | > 100 µM | 59.3 µM | > 61.8 µM | 33.3 µM | 33.4 µM | > 55 µM | 60.5 µM | 33.1 µM |
| COc1ccc(/C=C2\N=C3Sc4c(nc[nH]c4=O)N3C2=O)cc1 | > 100 µM | > 100 µM | > 100 µM | > 100 µM | > 100 µM | > 100 µM | > 100 µM | > 100 µM | > 100 µM | > 100 µM | > 100 µM | > 100 µM | > 100 µM | > 100 µM | > 100 µM | > 100 µM |  | > 100 µM |  |
| Nc1ccc(N=Nc2ccc(-c3ccc(O)cc3)cc2)c2ccc(S(=O)(=O)O)cc12 | > 100 µM | > 100 µM | > 100 µM |  | > 100 µM | > 100 µM | > 100 µM |  | > 100 µM | > 100 µM | > 100 µM | > 100 µM | > 100 µM | > 100 µM | > 100 µM | > 100 µM | > 100 µM | > 100 µM | > 100 µM |
| O=C1c2ccccc2-c2c1c(-c1ccc([N+](=O)[O-])cc1)nc1ccc3ccccc3c21 | > 100 µM | > 100 µM | > 100 µM | > 100 µM | > 100 µM | > 100 µM | > 100 µM | > 100 µM | > 100 µM | > 100 µM |  | > 100 µM | > 100 µM | > 100 µM |  | > 100 µM | > 100 µM |  | > 100 µM |
| Cc1cnc(-c2c[nH]c3ccccc23)nc1-c1c[nH]c2ccccc12 | 10.7 µM | 20.2 µM | 20.1 µM | 15.8 µM | 16.4 µM | 27 µM | 24.8 µM | 15.8 µM | 28.4 µM | 21.7 µM |  | 15.2 µM | 30.7 µM |  | 18.1 µM | 20.5 µM | 17.4 µM |  | 67.7 µM |
| CCCCCC[C@H]1CC(=O)C2CCCC[C@@]23CC[C@H](CCl)N13 (some centres undefined) (tested in a mixture with another compound) | > 100 µM | > 100 µM | > 100 µM | > 100 µM | > 100 µM | > 100 µM | > 100 µM |  |  | > 100 µM |  | > 100 µM | > 100 µM | > 100 µM | > 100 µM | > 100 µM | > 100 µM | 37.5 µM |  |
| CCOC(=O)C(C)(C(=O)OCC)/C(Cl)=C\Cl | > 100 µM | > 100 µM | > 100 µM | 0.988 µM | > 100 µM |  | > 100 µM | > 100 µM | > 100 µM | > 100 µM | > 100 µM | > 100 µM | > 100 µM | > 100 µM | > 100 µM | > 100 µM | > 100 µM | > 100 µM |  |
| O1C2C1C1OC1C1OC1C1OC21 (centres undefined) | > 100 µM | > 100 µM | > 100 µM | > 100 µM | > 100 µM | > 100 µM | > 100 µM | > 100 µM | > 100 µM |  |  | > 100 µM |  | > 100 µM | > 100 µM | > 100 µM | > 100 µM | > 100 µM | > 100 µM |
| Cc1ccc(/C(=C\C(=O)C(=O)NC23CC4CC(CC(C4)C2)C3)Sc2ccccc2)cc1 | > 10 µM |  | > 10 µM | > 10 µM |  | > 10 µM | > 10 µM | > 10 µM | > 10 µM | > 10 µM | > 10 µM | > 10 µM | > 10 µM | > 10 µM | > 10 µM | > 10 µM |  | > 10 µM |  |
| O=C(O)c1ccc(-c2nc3ccc(Cl)cc3[nH]2)cc1 | > 100 µM | > 100 µM |  | > 100 µM |  | > 100 µM | > 100 µM |  | > 100 µM | > 100 µM | > 100 µM | > 100 µM | > 100 µM |  |  |  |  | > 100 µM | > 100 µM |
| COc1ccc2c(c1)c1c(n2CCN(C)C)-c2cccc(OC)c2CC1 | > 100 µM | 40.9 µM | 39.5 µM | 34.9 µM | 50.3 µM | 45.9 µM | 27.6 µM | 26.1 µM | 26.8 µM | 30.9 µM |  | 35.9 µM |  | 32 µM | 41.5 µM | 37.7 µM | 34.6 µM | 15.6 µM | 40.5 µM |
| CCOC(=O)N(c1ccccc1)c1cc(=O)n2ccccc2n1 | > 100 µM | > 100 µM | > 100 µM | > 100 µM | > 100 µM | > 100 µM | > 100 µM |  | > 100 µM | > 100 µM | > 100 µM | > 100 µM | > 100 µM | > 100 µM | > 100 µM | > 100 µM | > 100 µM |  | > 100 µM |
| O=C1/C(=C/c2ccc(Cl)cc2)N=C(c2ccccc2)N1c1nc2ccccc2s1 | > 100 µM |  | > 100 µM | > 100 µM | > 100 µM | > 100 µM | > 100 µM | > 100 µM | 57.7 µM | > 100 µM | > 100 µM | > 100 µM | > 100 µM | > 100 µM | > 100 µM | > 100 µM |  | 75.1 µM |  |
| COCc1cc2c(cc1/C(=C/[N+](=O)[O-])CS(=O)(=O)c1ccccc1)OCO2 | > 100 µM | > 100 µM | > 100 µM | > 100 µM | > 100 µM | > 100 µM | > 100 µM | > 100 µM | > 100 µM | > 100 µM | > 100 µM | > 100 µM | > 100 µM | > 100 µM | > 100 µM | > 100 µM | > 100 µM | > 100 µM |  |
| CCN(CC)CCCNc1nc(=O)[nH]c(C)c1C(=O)Nc1c2ccccc2nc2ccccc12 | 32.6 µM | 44.2 µM | > 100 µM | 80.6 µM | 21.7 µM | 72.8 µM | > 100 µM | 23.7 µM | > 100 µM | 51.6 µM | 97 µM | 27.3 µM | 41.8 µM | > 100 µM | > 100 µM | 54.5 µM | 36.4 µM | 21.3 µM |  |
| C=C1CCCCCCCCCCC12SCCC2CCCCSC (centres undefined) | 87.4 µM | > 100 µM | > 100 µM | 39.2 µM | 33.9 µM | 73.4 µM | 40.9 µM | > 100 µM | 40.1 µM | 34.1 µM | 50.4 µM | 38.3 µM | 38.3 µM | 57.8 µM |  | 52.8 µM | 76 µM | 36.8 µM |  |
| O=C(c1ccc2ccccc2c1)N(Cc1cccnc1)C(=S)N(Cc1cccnc1)C(=O)c1ccc2ccccc2c1 | 73.4 µM | > 100 µM | 69.5 µM | 32 µM | > 100 µM | > 100 µM | 55.2 µM |  | > 100 µM | 42.7 µM | 43.9 µM | > 100 µM | > 100 µM | > 100 µM | 78.9 µM | 48.7 µM | > 100 µM | > 100 µM | 38.6 µM |
